In experiment [1] the test system is Barley. Nature of the experiment: Barley lodging control. Format: in vivo. How it is done:
(§1) Barley seeds were treated with paclobutrazol (alone) and with paclobutrazol in combination with gibberrelic acid at varying rates. The resulting plants were then additionally treated with foliar applications of trinexapac plant growth regulator (applied as Palisade™ 128 and Palisade™ 150) at the Feekes 6 timing. Emergence and percent lodging were measured against the check. The results are found in Tables BB and CC.

Experiment [2] deals with Xanthamonas spp. Put plainly: Xanthamonas infection of tomato transplants. The format is in vivo. As to conditions: versus fungicidal mixture alone. The source says:
Disease resistance in the post-emergent plant has also been shown through use of plant growth regulators as a seed treatment. A set of tomato transplants from seed treated with paclobutrazol and a fungicidal mixture of fludioxonil and mefenoxam was inoculated with Xanthamonas spp. 18 days after transplanting. […] The antibacterial activity of the PGR-treated plants is significant at several rates of application.

Experiment [3] concerns Variety Florida 47 tomatoe. Put plainly: Water use efficiency: cumulative water used by tomato transplants. As to conditions: for Cumulative Water Used (ml/6 plants), projected through 6th week: Table H. Format: in vivo. Here is the method: Variety Florida 47 tomatoe seeds were treated and the plants tested with respect to the cumulative amount of water used to sustain the plants from seeding through growth.
Using the data obtained from these trials, and empirical calculations, a tomato transplant business could save approximately 700 gallons of water while producing 27,000 transplants.
20 tables/greenhouse×28 flats/table×48 plants/flat×0.6 liters/6 plants×gal/3.75 1=710 gallons of water.

Experiment [4] concerns vine ripe tomatoes. Nature of the experiment: Yields of vine ripe tomatoes. Format: in vivo, tomato. The source says:
Table O also illustrates the safening effect of the PGR on the seed to later foliar application of the plant activator. Without the PBZ on the seed, the yield decreases from 119 to 96.

In experiment [5] the test system is Barley. Nature of the experiment: Barley emergence after PGR seed treatments. Format: in vivo. How it is done: as §1
Experiment [6] concerns Colorado Potato Beetle. Put plainly: Insect control: Colorado Potato Beetle count on plants from treated seed. The format is in vivo. The source says: Presence of Colorado Potato Beetle was studied in plants resulting from the seed treatments with paclobutrazol.

Data on four molecules can be found in patent US20070149401A1, “METHODS AND COMPOSITION FOR GROWTH ENGINEERING AND DISEASE CONTROL” (Syngenta Crop Protection, Inc., priority 2005, published 2007).

Consider `O=C1CC(C(=O)O)CC(=O)C1=C(O)C1CC1` (stereo not shown) [Trinexapac [150] Feekes 6], for which the “% Lodging” value in experiment [1] (7 Jun) amounted to 0.2%; in experiment [1] (11 Jun), 0%; in experiment [1] (18 Jun), 0%; in experiment [1] (19 May) it was 11.7%.

Take `CC(C)(C)[C@@H](O)[C@@H](Cc1ccc(Cl)cc1)n1cncn1` (racemic) [PBZ, paclobutrazol]: the “resistance against xanthamonas infection (in words)” value in experiment [2] is “greater resistance”. Further, the “Cumulative Water Used (ml/6 plants), projected through 6th week” value in experiment [3] (1-Aug) turned out to be 883 ml/6 plants; in experiment [3] (21-Jul) it was 113 ml/6 plants; in experiment [3] (22-Jul) it was 172 ml/6 plants; in experiment [3] (23-Jul), 259 ml/6 plants; in experiment [3] (25-Jul), 339 ml/6 plants; in experiment [3] (26-Jul), 423.17 ml/6 plants. Further, the “Cumulative Water Used (ml/6 plants), projected through 6th week” value in experiment [3] (27-Jul) was determined as 506 ml/6 plants; in experiment [3] (28-Jul) it was 575 ml/6 plants; in experiment [3] (29-Jul), 649 ml/6 plants; in experiment [3] (31-Jul), 790 ml/6 plants. In experiment [3] (during transplant production), the “water use (in words)” value is given as “decreased water use”. Moreover, the “yield (in words)” value in experiment [4] (PBZ on the seed, later foliar plant activator) is given as “substantially higher”. Further, the “Emergence, 8 Days after planting (no. emerged-6 ft row)” value in experiment [5] (listed as PBZ rate (1)) worked out at 68.2; in experiment [5] (listed as PBZ rate (3)), 38.7; in experiment [5] (listed as PBZ ratge (2)), 36.3. Besides, the “Emergence, 14 Days after planting (no. emerged-6 ft row)” value in experiment [5] (listed as PBZ rate (1)) turned out to be 113.2; in experiment [5] (listed as PBZ rate (3)), 114.5; in experiment [5] (listed as PBZ ratge (2)), 106.3. Further, the “No. Potato Beetle Adults/plant” value in experiment [6] worked out at 0.8. Besides, the “% Lodging” value is 85.8% in experiment [1] (7 Jun, listed as PBZ rate (1)); 72.5% in experiment [1] (7 Jun, listed as PBZ rate (3)); 68.3% in experiment [1] (7 Jun, listed as PBZ ratge (2)); 29.2% in experiment [1] (11 Jun, listed as PBZ rate (1)); 9.2% in experiment [1] (11 Jun, listed as PBZ rate (3)); 16.8% in experiment [1] (11 Jun, listed as PBZ ratge (2)). Besides, the “% Lodging” value is listed as 31.7% in experiment [1] (18 Jun, listed as PBZ rate (1)); 20% in experiment [1] (18 Jun, listed as PBZ rate (3)); 23.3% in experiment [1] (18 Jun, listed as PBZ ratge (2)); 0% in experiment [1] (19 May).

On to `CSC(=O)c1cccc2nnsc12` [ASM, acibenzolar-S-methyl], for which the “Cumulative Tomato Yields No. Fruit/Plot (12 plants)” value in experiment [4] (29-Aug, averages of 5 programs (ASM) and 3 programs (ASM + PBZ), PBZ on seed, ASM foliar) turned out to be 96.

With `O=C1CC(C(=O)O)CC(=O)C1=C(O)C1CC1` (stereo not shown) [Trinexapac [128] Feekes 6], the “% Lodging” value in experiment [1] (7 Jun) amounted to 7.5%; in experiment [1] (7 Jun, listed as Trinexapac [128] Feekes 6 + 7 days), 79.2%; in experiment [1] (11 Jun), 0.5%; in experiment [1] (11 Jun, listed as Trinexapac [128] Feekes 6 + 7 days) it was 17.2%; in experiment [1] (18 Jun) it was 0%; in experiment [1] (18 Jun, listed as Trinexapac [128] Feekes 6 + 7 days), 1.7%. In addition, the “% Lodging” value amounted to 8.3% in experiment [1] (19 May) and 7.5% in experiment [1] (19 May, listed as Trinexapac [128] Feekes 6 + 7 days).
